Experimental data as given in paper PMC12250893, “Systematic Characterization of In Vitro and In Vivo Metabolic Pathways and Identification of Novel Biomarkers of 26 Synthetic Cannabinoids” (Molecules, 2025).
Entries after “also recorded” stand apart in the source; their conditions may differ. Like-named read-outs stand apart in the source and are kept apart here.

Columns and labels:
[1] = set-up: method as in PMID 32678962; details: in vitro and in vivo systems; cited from earlier work
[2] = Rat metabolic model, metabolite identification; type: in vivo
Method: (§1) Sprague-Dawley male rats (200 ± 20 g) were obtained from SPF (Beijing) Biotechnology Co., Ltd. (Beijing, China). The animals were housed under controlled environmental conditions: Temperature was maintained at 20–25 °C, humidity at 50 ± 10%, and a 12/12 h light/dark cycle was applied. They had ad libitum access to standard laboratory chow and filtered water. A two-week acclimatization period was provided before the experiments began. The 26 SC standards were prepared in normal saline at concentrations of 0.5 mg/mL, 0.1 mg/mL, and 0.05 mg/mL. Each rat was weighed before administration, and the injection dose was adjusted based on body weight. The dosing volume for each rat was maintained at approximately 200 µL.
(§2) 162 Sprague-Dawley (SD) rats were randomly divided into 27 groups, with six rats in each group. The control group received an injection of normal saline, while the remaining groups were injected with 26 different types of SCs. The dosage administered was determined based on pre-experimental results, specifically selecting the dose that produced the highest level of metabolites in the blood samples collected 1 h after tail vein injection at concentrations of 0.5 mg/kg, 0.1 mg/kg, and 0.05 mg/kg, as shown in Table 6. Subsequently, tail vein administration was conducted at the specified dosage. The orbital venous blood was taken from the outer canthus of the rat with capillaries at 15 min and 1 h. Feces were collected after the blood. The rats were then sacrificed, and their brains and livers were dissected. Samples were immediately frozen in liquid nitrogen and stored at −80 °C until analysis.
(§3) For blood samples, 0.5 mL of each sample was mixed with 1.0 mL of acetonitrile. For brain samples, 0.2 g of tissue was combined with 0.5 mL of acetonitrile. For liver samples, 0.5 g of tissue was mixed with 0.5 mL of acetonitrile. For feces samples, 0.2 g of sample was combined with 1 mL of acetonitrile-water (3:1) for grinding and homogenization. Each mixture was sonicated for 40 min, allowed to precipitate at 4 °C for 30 min, and then centrifuged at 13,500 rpm for 10 min. The supernatant was filtered using a syringe filter (0.45 μm) for further testing.

[3] = Human liver microsomal incubation (in vitro metabolic model); details: for Conversion Rate: HLM, 37 °C 1 h, then UDPGA 30 min, peak area of parent in experimental group vs degradation control group; for most prevalent Phase II metabolic reaction / predominant Phase I metabolic reactions: human liver microsomal incubations
Method: Each of the 26 SCs was configured to 1 mg/mL with acetonitrile. The HLMs, NADPH regeneration solution A, regeneration solution B, and UDPGA solution were thawed at 4 °C. An icebox was prepared, and all additional steps were performed on ice. For this, 10 µL of NADPH regeneration solution A, 2 µL of regeneration solution B, 2 µL of SCs standard, and 10 µL of mixed human liver microsomes were added to 176 µL of 0.1 mol/L phosphate buffer. The mixture was mixed thoroughly and incubated at 37 °C for 1 h. Subsequently, 20 µL of UDPGA solution was added and mixed well, followed by an additional incubation for 30 min. The reaction was stopped by adding 200 µL of ice-cold acetonitrile. Additionally, the negative control group and the degradation control group were set up following the same procedure. […] The unadded components were supplemented with an equal amount of phosphate buffer. All samples were centrifuged at a high speed of 13,500 r for 10 min after reaction termination. The supernatant was collected and subsequently passed through a membrane filter (0.45 μm) prior to sampling.
The samples were separated and analyzed using a UHPLC-Q-Exactive Orbitrap MS system (Thermo Fisher Scientific, Waltham, MA, USA), which comprised a Thermo-Scientific™ Q-Exactive™(Thermo Fisher Scientific, Waltham, MA, USA) quadrupole electrostatic field orbitrap mass spectrometer coupled to a Vanquish ultrahigh-performance liquid chromatography (UHPLC) system (Thermo Fisher Scientific, Waltham, MA, USA) with a heated electrospray ionization HESI source in the positive ionization mode. The samples were separated on an ACQUITY UPLC BEH C18 Column (100 × 2.1 mm, 1.7 μm) with the column temperature maintained at 30 °C. The chromatographic separation was achieved using a gradient elution program with mobile phase A consisting of 0.1% formic acid in water and mobile phase B containing 0.1% formic acid in acetonitrile. The gradient profile was programmed as follows: Initial conditions were maintained at 5% B from 0 to 1 min, followed by a linear increase to 95% B from 1 to 11 min; the 95% B composition was held from 11 to 15.5 min, then decreased back to 5% B from 15.5 to 16 min, and finally maintained at 5% B from 16 to 18 min. The flow rate was set at 0.3 mL/min, and the injection volume was 10 μL for all analyses.
The following HESI source conditions were adopted: Acquisition mode was set to positive ion mode; the capillary temperature was maintained at 325 °C, the auxiliary gas heater temperature was set to 350 °C, and the spray voltage was applied at 3.7 kV. The mass spectrometry analysis was carried out in full-scan (FS) mode to trigger data-dependent acquisition in tandem mass spectrometry (FS-ddMS^2) mode. The FS data acquisition was performed using the following parameters: a resolution of 60,000, an automatic gain control (AGC) target of 1 × 10^6, a scan range of m/z 66.7–1000, and a maximum injection time (IT) of 250 ms. The ddMS^2 data acquisition was performed using the following parameters: a resolution of 30,000; an automatic gain control (AGC) target of 1 × 10^5; normalized collision energies (NCEs) of 20, 40, and 70 eV; and a maximum injection time (IT) of 50 ms.
Data acquisition was executed utilizing Xcalibur 4.3 software (Thermo Fisher Scientific, Waltham, MA, USA). The subsequent analysis of the acquired data was conducted using Thermo Fisher Scientific […] 3.2 software (Thermo Fisher Scientific, Waltham, MA, USA). The workflow’s nodes employed specific parameters: a mass tolerance of 5 ppm, a signal-to-noise threshold of 3, a minimum peak intensity of 1 × 10^5, a maximum peak width of 0.8 min, and a minimum of 3 scans per peak.

[4] = pooled HLM and real urine samples; cited from earlier work
[5] = Metabolite identification, HLM incubation and rat model combined (UHPLC-Q-Exactive Orbitrap MS); set-up: species or system human; rat; details: for metabolite that was a common outcome in both models: HLM incubation and rat model; for Characteristic Metabolite: characteristic / defining metabolites by the screening criteria; for Number of Metabolites / Number of Phase I Metabolites / Number of Phase II Metabolites: in vitro (HLM) and in vivo (rat) models together
Method: as §1, §2, §3

[6] = Clinical symptoms of rats in metabolic model; type: in vivo, rat; details: SD rats, dose 0.05-0.5 mg/kg per Table 6
Method: as §1, §2

[7] = following human liver microsomal incubation

Compound: CC(C)(NC(=O)c1cn(CCCCCF)c2ncccc12)c1ccccc1 [CUMYL-5F-P7ICA]
- Phase II metabolites detected [1]: sulfated and glucuronidated
- most common Phase I reactions [1]: oxidative defluorination, monohydroxylation, ketone formation, and carboxylation

Compound: COC(=O)C(NC(=O)c1cn(CCCCCF)c2ccccc12)C(C)(C)C (stereo not shown) [5F-MDMB-PICA]
- key Phase I metabolic reactions [2]: oxidative defluorination and hydroxylation
- most significant Phase II metabolic processes [2]: sulfation and glycoside binding reactions
- Phase I metabolites identified ([2]; tail vein injection): seven
- Phase II metabolites identified ([2]; tail vein injection): five
- metabolic pathways associated ([2]; tail vein injection): seven
- metabolites identified ([2]; tail vein injection): twelve
- Conversion Rate [3]: 95.9%
- Phase I metabolites detected [3, 7]: twelve
- Phase II metabolites detected [3, 7]: two
- metabolic pathways involved [3, 7]: eight
- metabolites detected [3, 7]: fourteen
- most prevalent Phase II metabolic reaction [3]: glucuronidation
- predominant Phase I metabolic reactions [3]: ester hydrolysis and hydroxylation
- most abundant stage I metabolites [4]: ester hydrolysis metabolites
- metabolite that was a common outcome in both models [5]: oxidative defluorination metabolite
- Characteristic Metabolite [5]: ester hydrolysis, de-N-alkylation, and oxidative defluorination metabolites; also recorded: Ester hydrolysis, de-N-alkyl side chain, and oxidative defluorination metabolite
- Number of Metabolites [5]: 25
- Number of Phase I Metabolites [5]: 18
- Number of Phase II Metabolites [5]: 7

Compound: CCOC(=O)C(NC(=O)c1nn(CCCCCF)c2ccccc12)C(C)C (stereo not shown) [5F-EMB-PINACA]
- key Phase I metabolic reactions [2]: oxidative defluorination and hydroxylation
- most significant Phase II metabolic processes [2]: sulfation and arginine binding reactions
- Phase II metabolites identified ([2]; tail vein injection): 3
- metabolic pathways associated ([2]; tail vein injection): eight
- metabolites identified ([2]; tail vein injection): 13
- Conversion Rate [3]: 100.0%
- Phase II metabolites detected [3, 7]: one
- metabolites detected [3, 7]: eleven
- most prevalent Phase II metabolic reaction [3]: glucuronidation
- predominant Phase I metabolic reactions [3]: ester hydrolysis and hydroxylation
- Animal manifestations after tail vein drug injection [6]: irritable, with unstable gait and tachypnea; also recorded: hematuria
- metabolite that was a common outcome in both models [5]: ester hydrolysis metabolite
- Characteristic Metabolite [5]: ester hydrolysis, ester hydrolysis, hydroxylated, and oxidative defluorination metabolites; also recorded: Ester hydrolysis, oxidative defluorination, ester hydrolysis, and hydroxylated metabolites
- Number of Metabolites [5]: 23
- Number of Phase I Metabolites [5]: 19
- Number of Phase II Metabolites [5]: 4
